Patent publication US20020049157A1, “Use of proteasome inhibitors for treating cancer, inflammation, autoimmune disease, graft rejection and septic shock” (priority 1998, published 2002)
Like-named read-outs stand apart in the source and are kept apart here. Peptide text beside a SMILES is read from it. * marks the point of attachment. Cbz = O=C(OCc1ccccc1)*; CH2F = FC*

Assays:
[1] = test system: BALB/c mouse spleen cells; experiment: Anti-CD3-stimulated T cell proliferation (3H-thymidine); type: cell-based; conditions: anti-CD3 50 ng/ml; pulsed 48 h, harvested 64 h
Method: The cells were pulsed with ^3H-thymidine at 48 h and harvested at 64 h after the culture.

[2] = test system: heart allograft; type: in vivo, mouse
Method: BALB/c mice (H-2^d) were used as heart donors and C57BL/6 mice (H-2^b) as recipients. […] Group 2 was given 0.65 mg/kg/day; group 3 was given 1.0 mg/kg/day for 4 days, and the dose was then reduced to 0.5 mg/kg/day for 12 days. The graft survival days, mean survival time (MST) and the p value (unpaired Student's test) compared with the control group was presented.
The applicant then used DPBA in treating allograft rejection in a mouse model. BALB/c (H-2^d) mice were used as donors and C57BL/6 (H-2^b) was used as recipients. Heterotropic heart transplantation was performed as described in our previous publication (Chen et al., 1996, supra). […] With this regimen, the MST is more than 22.8+9.8 days and has a tendency of being better than the first group.
Proteasome inhibitors when added at the late G1 phase can suppress proliferation and even induce apoptosis of the activated T cells. […] This possibility was tested in mouse heart transplantation model. The recipients were given no immunosuppressants for 72 h after the transplantation to allow the rejection response to proceed. […] This new drug will be especially useful in patients who are resistant to commonly used immunosuppressants such as CyA, azathioprine, and glucocorticoids.

[3] = test system: islet allograft; experiment: Mouse islet allograft in streptozocin-induced diabetes; type: in vivo; conditions: 1 mg/kg/day i.p. for 16 days, then 0.5 mg/kg twice a week until day 60
Method: C57BL/6 mice were treated with 250 mg/kg streptozocin and used as islet graft recipients when their blood glucose reached […] from BALB/c mice were isolated after collagenase digestion followed by Ficoll gradient separation. The islets were cultured overnight, and transplanted into the peritoneal cavity of the diabetic C57BL/6 recipients (500-600 islets/recipient). […] The blood glucose of the mice was measured daily and the means+SDs are shown. […] The mice were sacrificed on day 60, or when their blood glucose reached […].

[4] = test system: Streptococcus cell wall-induced polyarthritis; conditions: in vivo, cited from earlier work
[5] = test system: proteasome; conditions: for repression of chymotrypsin-like activity in the PBMC: RAPA at 10 nM
Method: Human PBMC were cultured in the absence or presence of 2 μg/ml PHA or 10 nM RAPA for 16 h-70 h as indicated. The cells were then harvested, and the chymotrypsin-like activity of whole cells lysates was assayed in the absence or presence of 20 μM proteasome inhibitor LAC. The data are presented as arbitrary units of fluorescence intensity per 20 μg lysate protein. The experiments were repeated three times and a representative one is shown. Samples are in duplicate and the mean±SD is shown. (A) Total chymotrypsin-like activity in the lysate of PBMC. (B) Lactacystin-inhibitable chymotrypsin-like activity in the lysate of 70 h PBMC. Nine micrograms of 20S proteasome were used as positive controls for the inhibitory effect of LAC at 10 μM and 20 μM. LAC was always added to the lysates during the proteinase assay 15 min before the addition of the substrate. The solid bars represent the activity in the presence of LAC. The net proteasome activities are calculated as the total activity minus the remaining activity after the LAC addition.
PBMC lysates were assayed for their proteinase activity at pH 8.2 which favors the proteasome activity, using a chymotrypsin substrate as a representative parameter.
PBMC were cultured with or without PHA (2 μg/ml) and RAPA (10 nM). After 16 h-70 h, the cells were harvested and sonicated in 300 μl PBS on ice for 40 sec. Twenty micrograms of protein per sample from the cleared lysates were supplemented to 100 μl with 0.1 M Tris buffer (pH 8.2). A proteasome-specific inhibitor lactacystin (Omura et al., 1991, supra; Fentenay et al., 1995, supra) was added at a final concentration of 10 nM in some samples as indicated. The samples were incubated on ice for 15 min, and fluorogenic chymotrypsin substrate sLLVY-MCA was then added at a final concentration of 10 nM. The 20S proteasome, which was prepared as previously described (Friguet et al, 1994, J. Biol. Chem. 269:21639), was used as a positive control in place of cell lysates. The samples were incubated at 37° C. for 15 min and the reaction was terminated by adding 4 μl 2.5 M HCl. The samples were then diluted to 2 ml with 0.1 M Tris pH8.2, and measured for their fluorescent intensity by a PTI fluorometer (Photo Technology International, South Brunswick, N.J.). The excitation wavelength was 380 nm, and the emission wavelength 440 mn.

[6] = test system: Jurkat and Namalwa cells; experiment: Apoptosis induction in Jurkat and Namalwa cells; type: cell-based
[7] = test system: Jurkat cells; experiment: DNA fragmentation (DNA laddering) in Jurkat cells; type: cell-based; conditions: LAC 6 μM; caspase inhibitor 0.4 μM to 33.3 μM; 6 h
Method: Tonsillar T cells (A, B, and D) and Jurkat cells (C and E) were treated with LAC (10 μM for T cells and 6 μM for Jurkat cells). LAC was added at the beginning of the culture or 40 h after T cell activation as indicated. The cells were harvested at the time points as shown. They were evaluated for their viability with trypan blue exclusion (A, B, and C), and for their mode of cell death according to DNA fragmentation (D and E).
Jurkat cells were treated with LAC (6 μM) in the absence or presence of different concentrations of zVAD.fms (0.4 μM to 33.3 μM) for 6 h. The cells were harvested and their DNA was analyzed by a DNA fragmentation assay according to DNA laddering.
We next employed DNA laddering to study the mode of cell death caused by LAC, and the result of this experiment also reflected the degree of cell death after different treatments. […] After 24 h of LAC treatment, the ladders became less discrete, and this probably reflected further DNA breakdown.
The assay was performed according to a protocol described by Liu et al (Liu et al., 1997, Cell. 89:175) with some modifications. Briefly, 2-6 million cells were re-suspended in 50 μl PBS followed by 300 μl lysis buffer (100 mM Tris-HCl, pH 8.0, 5 mM EDTA, 0.2 M NaCl. 0.2% w/v SDS, and 0.2 mg/ml proteinase K). After overnight incubation at 37° C., 350 μl of 3M NaCl was added to the mixture and cell debris was removed by centrifugation at 13000 g for 20 min at room temperature. DNA in the supernatant was precipitated with an equal volume of 100% ethanol. The pellet was washed with cold 70% ethanol and then dissolved in 20 μl of TE containing 0.2 mg/ml RNase A. After incubation at 37° C. for 2 h, the DNA was resolved on 2% agarose gel and visualized with ethidium bromide staining.

[8] = test system: Jurkat cells; experiment: Respiration (O2 consumption) of Jurkat cells, oxygen electrode; type: cell-based; conditions: LAC for 4 h; 100 μM Cytochrome C
From the text: The function of Complex I of digitonin (Dig)-permeated Jurkat cells was blocked by rotenone (Rot), and the respiration was resumed by adding succinate (Suc), which provides electrons to Complex II directly and thus bypasses Complex I. The maximal respiration was achieved by adding CCCP (carbonyl cyanide m-chlorophenylhydrazone), which uncouples the oxidation and phosphorylation. The respiration could be blocked by antimycin A (Ant), which inhibits […]. Curves 1 and 6 represent positive controls of rat kidney mitochondria. Curves 2 and 5 represent normals untreated Jurkat cells. Curves 3 and 4 represent Jurkat cells treated with lactacystin (6 μM) for 2 h and 4 h, respectively.
Complex III in the respiration chain was blocked at Complex III antimycin (Ant), and the electron flow was resumed by addiind ascorbate (Asc) and TMPD (tetramethyl-p-phenyl-enediamine).
The assay system is identical to that described in FIG. 16. Jurkat cells were treated with LAC for 4 h (curve 3). The decoupling reagent used in this experiment to achieve maximal respiration is FCCP (carbonylcyanide-p-trifluoromethoxyphenylhydrazone).
The Jurkat Cells (JC) (30×10^6/ml) or rat kidney proximal tubules mitochondria (RKM) (0.5 mg of protein/ml) were incubated in 1 ml measuring chamber at 37° C. in a respiration buffer containing 200 mM sucrose, 5 mM MgCl2, 5 mM KH2PO4, and 30 mM HEPES-Tris (pH 7.5). During respiration experiments following substrates and inhibitors were used: 0.005% Digitonine (Dig); 10 mM Succinate (Suc); 1 mM Ascorbate (Asc); 0.4 mM tetramethyl-p- phenylenediamine (TMPD); 1 μM CCCP, 1 μM FCCP; 0.1 μM Rotenone (Rot); 50 nM Antimycin A (Anti); 1 mM KCN; 100 μM Cytochrome C (Cyt C). The respiration rate of the Jurkat Cells and mitochondria was measured polarographically with a Clarke oxygen electrode (Yellow Springs Instruments, Yellow Springs, Ohio, U.S.A.) using 1 ml thermojacketed chamber. Oxygen concentration was calibrated with air-saturated buffer using Hypoxanthine—Xanthine Oxidase—Catalase system (“chemical zero”). Oxygen consumption was continuously recorded using a “MacLab/8” (Analog Digital Instruments, U.S.A.) connected to a Macintosh SE computer and the MacLab Chart v.3.3.4 software. Rates of oxygen consumption are expressed as ng-atoms of oxygen/min.

Molecule: CC(C)C[C@H](NC(=O)[C@H](Cc1ccccc1)NC(=O)c1cnccn1)B(O)O [DPBA, Pyz-Phe-boroLeu]
- IC50 [1]: ~18 nM
- MST (mean survival time of heart allograft) ([2]; 0.65 mg/kg/day i.p. for 16 days): more than 26.2+13 days
- MST (mean survival time of heart allograft) ([2]; 1 mg/kg/day i.p. day 1-4, then 0.5 mg/kg/day i.p. day 5-16): more than 22.8+9.8 days
- MST (ongoing rejection) ([2]; 1 mg/kg/day i.p. for 4 days starting on day 3): more than 13.2+1.78 days
- appearance of the mice during or after the drug administration ([2]; mouse, in vivo, ip): appear healthy
- graft survival (ongoing rejection) ([2]; short-term treatment between day 3 and 6): more than 13 days
- duration of normal function of allogeneic islet graft [3]: more than 60 days
- glucose elevation consequent to islet rejection [3]: inhibits the glucose elevation consequent to islet rejection
- toxicity ([4]; rat): without apparent toxicity
- inhibition of Streptococcus cell wall-induced polyarthritis ([4]; rats): effectively inhibit

Molecule: CO[C@H]1C[C@@H]2CC[C@@H](C)[C@@](O)(O2)C(=O)C(=O)N2CCCC[C@H]2C(=O)O[C@H]([C@H](C)C[C@@H]2CC[C@@H](O)[C@H](OC)C2)CC(=O)[C@H](C)/C=C(\C)[C@@H](O)[C@@H](OC)C(=O)[C@H](C)C[C@H](C)/C=C/C=C/C=C/1C [RAPA, Rapamycin]
- net proteasome activity ([5]; PHA plus RAPA-treated cells, 70 h, total minus activity remaining after LAC): 113.2×10^3 units/20 μg protein
- inhibition of the augmented proteasome activity in the PHA-treated PBMC ([5]; RAPA 10 nM, 70 h): 44.7%
- inhibition of the total proteasome activity in the PHA-treated PBMC ([5]; RAPA 10 nM, 70 h): 33.6%
- repression of chymotrypsin-like activity in the PBMC ([5]; 40 h after PHA stimulation): 23.1%
- repression of chymotrypsin-like activity in the PBMC ([5]; 70 h after PHA stimulation): 41.1%

Molecule: CN[C@@H]1C[C@H]2O[C@@](C)([C@@H]1OC)n1c3ccccc3c3c4c(c5c6ccccc6n2c5c31)C(=O)NC4 [staurosporine]
- induction of apoptosis [6]: could equally induce apoptosis

Molecule: COC(=O)C[C@H](NC(=O)[C@H](C)NC(=O)[C@@H](NC(=O)OCc1ccccc1)C(C)C)C(=O)CF [zVAD.fms, zVAD.fmk] (Cbz-Val-Ala-Asp(OMe)-CH2F)
- effect on LAC-induced DNA fragmentation [7]: inhibitory effect on DNA fragmentation that is concentration responsive

Molecule: cytochrome c
- respiration of LAC-treated cells after adding exogenous cytochrome c [8]: the respiration resumed to a rate similar to that of untreated Jurkat cells and mitochondria
